Measurements as given in PubChem BioAssay (NCI).
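1) Cells in 96-well plates. 2) Compound, 48 h, 5 concentrations. 3) Linear interpolation between surrounding doses. 4) Unreached endpoint = highest concentration. TGI: concentration producing complete growth inhibition.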

Key:
Assay in all cases: inhibition of tumour cell growth, NCI panel, 48 h
786-0 renal = tested on: 786-0 renal
A549 NSCLC = tested on: A549 NSCLC
ACHN renal = tested on: ACHN renal
BT-549 breast = tested on: BT-549 breast
CAKI-1 renal = tested on: CAKI-1 renal
CCRF-CEM leukemia = tested on: CCRF-CEM leukemia
COLO 205 colon = tested on: COLO 205 colon
DU-145 prostate = tested on: DU-145 prostate
EKVX NSCLC = tested on: EKVX NSCLC
HCT-116 colon = tested on: HCT-116 colon
HCT-15 colon = tested on: HCT-15 colon
HL-60(TB) leukemia = tested on: HL-60(TB) leukemia
HOP-62 NSCLC = tested on: HOP-62 NSCLC
HOP-92 NSCLC = tested on: HOP-92 NSCLC
HS 578T breast = tested on: HS 578T breast
HT29 colon = tested on: HT29 colon
IGROV1 ovarian = tested on: IGROV1 ovarian
K-562 leukemia = tested on: K-562 leukemia
KM12 colon = tested on: KM12 colon
LOX IMVI melanoma = tested on: LOX IMVI melanoma
M14 melanoma = tested on: M14 melanoma
MALME-3M melanoma = tested on: MALME-3M melanoma
MCF7 breast = tested on: MCF7 breast
MDA-MB-231 breast = tested on: MDA-MB-231 breast
MDA-MB-435 = tested on: MDA-MB-435
MDA-N = tested on: MDA-N
MOLT-4 leukemia = tested on: MOLT-4 leukemia
NCI-H226 lung = tested on: NCI-H226 lung
NCI-H23 lung = tested on: NCI-H23 lung
NCI-H522 lung = tested on: NCI-H522 lung
NCI/ADR-RES ovarian = tested on: NCI/ADR-RES ovarian
OVCAR-3 ovarian = tested on: OVCAR-3 ovarian
OVCAR-4 ovarian = tested on: OVCAR-4 ovarian
OVCAR-5 ovarian = tested on: OVCAR-5 ovarian
OVCAR-8 ovarian = tested on: OVCAR-8 ovarian
PC-3 prostate = tested on: PC-3 prostate
RPMI-8226 leukemia = tested on: RPMI-8226 leukemia
RXF 393 renal = tested on: RXF 393 renal
SF-268 CNS = tested on: SF-268 CNS
SF-295 CNS = tested on: SF-295 CNS
SF-539 CNS = tested on: SF-539 CNS
SK-MEL-2 melanoma = tested on: SK-MEL-2 melanoma
SK-MEL-28 melanoma = tested on: SK-MEL-28 melanoma
SK-MEL-5 melanoma = tested on: SK-MEL-5 melanoma
SK-OV-3 ovarian = tested on: SK-OV-3 ovarian
SN12C renal = tested on: SN12C renal
SNB-19 CNS = tested on: SNB-19 CNS
SNB-75 CNS = tested on: SNB-75 CNS
SR leukemia = tested on: SR leukemia
SW-620 colon = tested on: SW-620 colon
T-47D breast = tested on: T-47D breast
TK-10 renal = tested on: TK-10 renal
U251 CNS = tested on: U251 CNS
UACC-257 melanoma = tested on: UACC-257 melanoma
UO-31 renal = tested on: UO-31 renal
A498 renal = tested on: A498 renal
HCC-2998 colon = tested on: HCC-2998 colon
UACC-62 melanoma = tested on: UACC-62 melanoma

Measured: TGI

O=C(c1ccccc1)c1ccc2nc(-c3c(Cl)c(Cl)c(Cl)c(Cl)c3C(=O)N/N=C/c3ccc(Cl)cc3)[nH]c2c1
71.3 µM: CCRF-CEM leukemia
99.6 µM: 786-0 renal
71.8 µM: MCF7 breast
88 µM: T-47D breast
85.9 µM: RXF 393 renal
45.7 µM: SK-MEL-5 melanoma
51.3 µM: RPMI-8226 leukemia
72.4 µM: SK-MEL-2 melanoma
65.7 µM: ACHN renal
61.4 µM: MDA-MB-231 breast
21.1 µM: HL-60(TB) leukemia
51.5 µM: OVCAR-3 ovarian
not listed: A498 renal | HCC-2998 colon | UACC-62 melanoma
> 100 µM: all other assays above

COc1cc2c(cc1C1COc3cc4occc4cc3C1=O)OCO2 (stereo unspecified)
30.1 µM: RPMI-8226 leukemia
89.8 µM: HS 578T breast
36.5 µM: OVCAR-4 ovarian
not listed: HL-60(TB) leukemia | K-562 leukemia
> 100 µM: all other assays above
